Results on nine molecules are retold here after patent US4562068A, “Sebosuppressive cosmetic preparations containing aryloxobutenoic acid derivatives” (Henkel Kommanditgesellschaft auf Aktien, priority 1982, dated 1985).

The assay has as its system brown cutaneous surface lipid of the rats. The assay is described as follows: Testing for anti-seborrheic activity: brown discoloration (brown cutaneous surface lipid) on shaved backs of male Wistar rats after topical application. Format: in vivo. To be noted: 9 applications in 14 days; for Evaluation Method 1 (percentage of evaluators recognizing an effect): topical on one side of back fur, 6 male Wistar rats. The source says:
The anti-seborrheic activity of aryloxobutenoic acid derivatives was examined closely in the animal experiments described hereinafter. The experimental animals were male Wistar rats weighing from 220 to 230 gm. A degree of brown discoloration on the shaved backs of the rats was established visually; the brown discoloration was caused by the brown cutaneous surface lipid of the rats. This test is based upon the observation that young female rats as well as male rats that were washed with tenside solution and a lipid solvent, respectively, as well as male rats that were treated systematically with estrogen, show only the normal light-colored pink skin after shaving; parallel to this, only relatively very small amounts of lipid can be extracted from the shorn hair.
For evaluation of anti-seborrheic activity, the test substances set forth in the table below, each in solution in ethanol, were each brushed on one side of the back fur of six rats. The other side was treated only with the solvent without the active substance (control side). During the testing period of 14 days, application of test substance was made once a day on a total of 9 days. A group of 6 rats that remained completely untreated served as an additional control. At the end of the testing, the animals were shaved on the back and the flanks and inspected visually, this inspection being done independently by an evaluation panel (6 persons) under doubleblind conditions.
Three criteria were rated. The first criterion was whether the majority of the evaluators recognized the treated side properly. The differentiations were as follows:
The second criterion was the difference between the right and left sides, one point each to be given per evaluator and animal, in the manner that the darker side was rated 1, the lighter side was rated 0, and uniformity of both sides were rated 0.5.
Significant differences between the untreated and the treated side according to the second method of evaluation indicate the topical effectiveness of a substance.
The third criterion was the rating of the difference in intensity of the brown shades according to the following scale:
According to the third method of evaluation, the differences in the point totals between the untreated control animals and the treated and untreated sides, respectively, of the experimental animal group were calculated where significant differences between control animals and the treated side of the experimental animals indicate the effect of a substance. Similarly, a distinct difference between the untreated and the treated sides of the experimental animal groups is also generally noticeable. However, this is not always as distinct as that between control animals and treated sides, which may be due to various reasons, as, for example, mechanical transfer of substance from one side to the other or solvent influence.
The differentiation of the effects according to the methods of evaluation 2 and 3 was characterized in the following manner:
In addition, the percentage of sebum reduction was calculated by dividing the point difference (ΔP) by the number of points for the control group (Pk) and multiplying by 100%, as follows: […]

[1] abbreviates: Rattus norvegicus, 336 h, 0.5% in ethanol, topical, point difference (ΔP) / points of control group (Pk) x 100%, read-out: Sebum Reduction.
[2] abbreviates: Rattus norvegicus, 336 h, 0.1% in ethanol, topical, point difference (ΔP) / points of control group (Pk) x 100%, read-out: Sebum Reduction.

`CCOC(=O)C=CC(=O)c1ccccc1` [Example 2, 4-Phenyl-4-oxo-but-2-enoic ethyl ester]: the “Evaluation Method 1 (percentage of evaluators recognizing an effect)” value (0.1% in ethanol) is reported as “++ (100%)”. Take `CCOC(=O)C=CC(=O)c1ccc(Cl)cc1` [Example 1, 4-(4'-Chloro-phenyl)-4-oxo-but-2-enoic acid ethyl ester]: under “0.25% in ethanol”, the “Evaluation Method 1 (percentage of evaluators recognizing an effect)” value is on record as “++ (100%)”. For the same molecule, under “Rattus norvegicus, 336 h, 0.25% in ethanol, topical, point difference (ΔP) / points of control group (Pk) x 100%, read-out: Sebum Reduction”, the inhibition in vivo at 0.25 % was determined as 84%. Turning to `CCOC(=O)C=CC(=O)c1ccc(OC)c(OC)c1O` [Example 8, 4-(3',4'-Dimethoxy-2'-hydroxy-phenyl)-4-oxo-but-2-enoic acid ethyl ester], where the note is “0.5% in ethanol”, the “Evaluation Method 1 (percentage of evaluators recognizing an effect)” value was “++ (100%)”. Further, under setting [1], the inhibition in vivo at 0.5 % stood at 69%. For `CCCCOc1ccc(C(=O)C=CC(=O)OCC)cc1` [Example 6, 4-(4'-Butoxy-phenyl)-4-oxo-but-2-enoic acid ethyl ester] the same measures were “++ (100%)” and 42%. As to `CC(C)OC(=O)C=CC(=O)c1ccccc1` [Example 3, 4-Phenyl-4-oxo-but-2-enoic isopropyl ester], where the note is “0.1% in ethanol”, the “Evaluation Method 1 (percentage of evaluators recognizing an effect)” value was “++ (100%)”. Under setting [2], the inhibition in vivo at 0.1 % is 68%. The like results for `CCCCOC(=O)C=CC(=O)c1ccccc1` [Example 4, 4-Phenyl-4-oxo-but-2-enoic acid butyl ester] were, in that order, “++ (100%)” and 66%. The like results for `CCOC(=O)C=CC(=O)c1ccc(Cl)cc1Cl` [Example 10, 4-(2',4'-Dichloro-phenyl)-4-oxo-but-2-enoic acid ethyl ester] were, in that order, “++ (100%)” and 27%.

As for `CCOC(=O)C=CC(=O)c1ccc(OC)c(OC)c1` [Example 5, 4-(3',4'-Dimethoxy-phenyl)-4-oxo-but-2-enoic acid ethyl ester], the “Evaluation Method 1 (percentage of evaluators recognizing an effect)” value (0.1% in ethanol) was “++ (100%)”. Moreover, the inhibition in vivo at 0.1 % under setting [2] was found to be 65%.

With `CCOC(=O)C=CC(=O)c1ccc(NC(C)=O)cc1` [Example 9, 4-(4'-Acetylamino-phenyl)-4-oxo-but-2-enoic acid ethyl ester], under “0.1% in ethanol”, the “Evaluation Method 1 (percentage of evaluators recognizing an effect)” value is “++ (100%)”. The inhibition in vivo at 0.1 % under setting [2] was found to be 84%.
